In PubChem BioAssay (NCI):
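In this assay, cells in 96-well plates receive the compound at five concentrations for 48 hours. Endpoints are linearly interpolated between the surrounding concentrations. The concentration for full growth arrest is given as TGI.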

How the values were obtained:
Test in all cases: growth of human tumour cells (NCI), 48 h
786-0 renal = system: 786-0 renal
A498 renal = system: A498 renal
A549 NSCLC = system: A549 NSCLC
ACHN renal = system: ACHN renal
BT-549 breast = system: BT-549 breast
CAKI-1 renal = system: CAKI-1 renal
CCRF-CEM leukemia = system: CCRF-CEM leukemia
COLO 205 colon = system: COLO 205 colon
DU-145 prostate = system: DU-145 prostate
EKVX NSCLC = system: EKVX NSCLC
HCC-2998 colon = system: HCC-2998 colon
HCT-116 colon = system: HCT-116 colon
HCT-15 colon = system: HCT-15 colon
HL-60(TB) leukemia = system: HL-60(TB) leukemia
HOP-62 NSCLC = system: HOP-62 NSCLC
HOP-92 NSCLC = system: HOP-92 NSCLC
HS 578T breast = system: HS 578T breast
HT29 colon = system: HT29 colon
IGROV1 ovarian = system: IGROV1 ovarian
K-562 leukemia = system: K-562 leukemia
KM12 colon = system: KM12 colon
LOX IMVI melanoma = system: LOX IMVI melanoma
M14 melanoma = system: M14 melanoma
MCF7 breast = system: MCF7 breast
MDA-MB-231 breast = system: MDA-MB-231 breast
MDA-MB-435 = system: MDA-MB-435
MDA-N = system: MDA-N
MOLT-4 leukemia = system: MOLT-4 leukemia
NCI-H226 lung = system: NCI-H226 lung
NCI-H23 lung = system: NCI-H23 lung
NCI-H460 lung = system: NCI-H460 lung
NCI-H522 lung = system: NCI-H522 lung
NCI/ADR-RES ovarian = system: NCI/ADR-RES ovarian
OVCAR-3 ovarian = system: OVCAR-3 ovarian
OVCAR-4 ovarian = system: OVCAR-4 ovarian
OVCAR-5 ovarian = system: OVCAR-5 ovarian
OVCAR-8 ovarian = system: OVCAR-8 ovarian
PC-3 prostate = system: PC-3 prostate
RPMI-8226 leukemia = system: RPMI-8226 leukemia
RXF 393 renal = system: RXF 393 renal
SF-268 CNS = system: SF-268 CNS
SF-295 CNS = system: SF-295 CNS
SF-539 CNS = system: SF-539 CNS
SK-MEL-2 melanoma = system: SK-MEL-2 melanoma
SK-MEL-28 melanoma = system: SK-MEL-28 melanoma
SK-MEL-5 melanoma = system: SK-MEL-5 melanoma
SK-OV-3 ovarian = system: SK-OV-3 ovarian
SN12C renal = system: SN12C renal
SNB-19 CNS = system: SNB-19 CNS
SW-620 colon = system: SW-620 colon
T-47D breast = system: T-47D breast
TK-10 renal = system: TK-10 renal
U251 CNS = system: U251 CNS
UACC-257 melanoma = system: UACC-257 melanoma
UACC-62 melanoma = system: UACC-62 melanoma
UO-31 renal = system: UO-31 renal

Measured: TGI

CC1=C(C(=O)NNC(=O)c2ccccc2)CC(C(=O)NNC(=O)c2ccccc2)=C(C)N1
> 100 µM: all assays above
